Experimental data reported in patent EP0908457B1, “3-(1,2-benzisothiazol- and isoxazol-5-Y1)-2,4(1H,3H)-pyrimidinedione or thione and 3-(1,2-benzisothiazol- and isoxazol-5-y1)-4(3H)-pyrimidinone or thione herbicidal agents” (BASF AKTIENGESELLSCHAFT, priority 1997, dated 1999).

How the values were obtained:
[1] = system: Echinochloa oryzoides (Ard.) Fritsch.; experiment: Preemergence weed control under flooded paddy conditions, ECHORC (Watergrass (Calif.)); format: in vivo; conditions: flooded paddy; also: meaning of each grade not given here
Cyperus iria = experiment: Preemergence weed control under flooded paddy conditions, CYPIR (Rice Flatsedge); format: in vivo; conditions: flooded paddy; also: meaning of each grade not given here
[2] = system: Cyperus serotinus, Rottb.; experiment: Preemergence weed control under flooded paddy conditions, CYPSE (Flatsedge); format: in vivo; also: meaning of each grade not given here
[3] = system: Monochoria vaginalis, Presl.; experiment: Preemergence weed control under flooded paddy conditions, MOOVA (Monochoria); format: in vivo; conditions: flooded paddy; also: meaning of each grade not given here
Sagittaria pygmaea, L. = experiment: Preemergence weed control under flooded paddy conditions, SAGPY (Arrowhead (Pygmaea)); format: in vivo; conditions: flooded paddy; also: meaning of each grade not given here
[4] = system: Oryza sativa, (L.) Tebonnet; experiment: Rice tolerance to post-transplant applications under flooded paddy conditions (Example 187), ORYSAT (Rice, Tebonnet); as to herbicidal effect rating ORYSAT: meaning of each grade not given here
[5] = Rate 0.0320 kg/ha, preemergence weeds, rated three to four weeks after treatment
[6] = Rate 0.0620 kg/ha, preemergence weeds, rated three to four weeks after treatment
[7] = Rate 0.1250 kg/ha, preemergence weeds, rated three to four weeks after treatment
[8] = Rate 0.2500 kg/ha, preemergence weeds, rated three to four weeks after treatment
[9] = Rate 0.0320 kg/ha, rated three to four weeks after treatment
[10] = Rate 0.0620 kg/ha, rated three to four weeks after treatment
[11] = Rate 0.1250 kg/ha, rated three to four weeks after treatment
[12] = Rate 0.2500 kg/ha, rated three to four weeks after treatment
[13] = Rate 0.0320 kg/ha, preemergence, rated three to four weeks after treatment
[14] = Rate 0.0620 kg/ha, preemergence, rated three to four weeks after treatment
[15] = Rate 0.1250 kg/ha, preemergence, rated three to four weeks after treatment
[16] = Rate 0.2500 kg/ha, preemergence, rated three to four weeks after treatment
[17] = 0.0313 kg/ha, preemergence weeds, rated three to four weeks after treatment
[18] = 0.0625 kg/ha, preemergence weeds, rated three to four weeks after treatment
[19] = 0.1250 kg/ha, preemergence weeds, rated three to four weeks after treatment
[20] = 0.2500 kg/ha, preemergence weeds, rated three to four weeks after treatment
[21] = Rate 0.0320 kg/ha, preemergence, rated 3-4 weeks after treatment
[22] = Rate 0.0620 kg/ha, preemergence, rated 3-4 weeks after treatment
[23] = Rate 0.1250 kg/ha, preemergence, rated 3-4 weeks after treatment
[24] = Rate 0.2500 kg/ha, preemergence, rated 3-4 weeks after treatment

COC(=O)C(C)Oc1cccc(-c2nsc3ccc(-n4c(=O)cc(C(F)(F)F)n(C)c4=O)cc23)c1 (centres unmarked) [Example 325, Propionic acid, 2-{m-{5-[3,6-dihydro-3-methyl-2,6-dioxo-4-(trifluoromethyl)-1-(2H)-pyrimidinyl]-1,2-benzisothiazol-3-yl}phenoxy}-, methyl ester]
6.3: herbicidal effect rating, SAGPY (Sagittaria pygmaea, L.; [7])
9.0: herbicidal effect rating, ECHORC [1, 6] | herbicidal effect rating, ECHORC [1, 7] | herbicidal effect rating, ECHORC [1, 8] | herbicidal effect rating, CYPIR (Cyperus iria; [7]) | herbicidal effect rating, CYPIR (Cyperus iria; [8]) | herbicidal effect rating, CYPSE [2, 6] | herbicidal effect rating, CYPSE [2, 8] | herbicidal effect rating, MOOVA [3, 6] | herbicidal effect rating, MOOVA [3, 7] | herbicidal effect rating, MOOVA [3, 8] | herbicidal effect rating, SAGPY (Sagittaria pygmaea, L.; [8])
4.7: herbicidal effect rating, CYPSE [2, 5]
8.7: herbicidal effect rating, CYPIR (Cyperus iria; [6])
4.0: herbicidal effect rating, SAGPY (Sagittaria pygmaea, L.; [5]) | herbicidal effect rating ORYSAT [4, 12]
3.7: herbicidal effect rating ORYSAT [4, 11]
7.3: herbicidal effect rating, CYPSE [2, 7]
8.0: herbicidal effect rating, CYPIR (Cyperus iria; [5]) | herbicidal effect rating, MOOVA [3, 5]
4.3: herbicidal effect rating, SAGPY (Sagittaria pygmaea, L.; [6])
2.7: herbicidal effect rating ORYSAT [4, 9]
7.7: herbicidal effect rating, ECHORC [1, 5]
3.0: herbicidal effect rating ORYSAT [4, 10]

C=C(Cl)COC(=O)c1nsc2ccc(-n3c(=O)cc(C(F)(F)F)n(C)c3=O)cc12 [Example 386, 1,2-Benzisothiazole-3-carboxylic acid, 5-[3,6-dihydro-3-methyl-2,6-dioxo-4-(trifluoromethyl)-1(2H)-pyrimidinyl]-, 2-chloroallyl ester]
5.0: herbicidal effect rating, ECHORC [1, 16] | herbicidal effect rating ORYSAT [4, 9] | herbicidal effect rating ORYSAT [4, 10] | herbicidal effect rating ORYSAT [4, 11] | herbicidal effect rating ORYSAT [4, 12]
7.0: herbicidal effect rating, CYPIR (Cyperus iria; [13]) | herbicidal effect rating, CYPSE [2, 14] | herbicidal effect rating, CYPSE [2, 15] | herbicidal effect rating, CYPSE [2, 16] | herbicidal effect rating, SAGPY (Sagittaria pygmaea, L.; [14])
4.0: herbicidal effect rating, ECHORC [1, 15] | herbicidal effect rating, SAGPY (Sagittaria pygmaea, L.; [13])
9.0: herbicidal effect rating, CYPIR (Cyperus iria; [14]) | herbicidal effect rating, CYPIR (Cyperus iria; [15]) | herbicidal effect rating, CYPIR (Cyperus iria; [16]) | herbicidal effect rating, MOOVA [3, 13] | herbicidal effect rating, MOOVA [3, 14] | herbicidal effect rating, MOOVA [3, 15] | herbicidal effect rating, MOOVA [3, 16] | herbicidal effect rating, SAGPY (Sagittaria pygmaea, L.; [15]) | herbicidal effect rating, SAGPY (Sagittaria pygmaea, L.; [16])
3.0: herbicidal effect rating, ECHORC [1, 14] | herbicidal effect rating, CYPSE [2, 13]
0.0: herbicidal effect rating, ECHORC [1, 13]

Cn1c(C(F)(F)F)cc(=O)n(-c2ccc3snc(C(C#N)=Cc4ccncc4)c3c2)c1=O [Example 596, 1,2-Benzisothiazole-3-acetonitrile, 5-[3,6-dihydro-3-methyl-2,6-dioxo-4-(trifluoromethyl)-1(2H)-pyrimidinyl]-alpha-(4-pyridylmethylene)-]
3.0: herbicidal effect rating, MOOVA [3, 13] | herbicidal effect rating ORYSAT [4, 10]
6.0: herbicidal effect rating, SAGPY (Sagittaria pygmaea, L.; [16]) | herbicidal effect rating ORYSAT [4, 12]
0.0: herbicidal effect rating, ECHORC [1, 13] | herbicidal effect rating, CYPIR (Cyperus iria; [13]) | herbicidal effect rating, CYPIR (Cyperus iria; [14]) | herbicidal effect rating, CYPIR (Cyperus iria; [15]) | herbicidal effect rating, CYPIR (Cyperus iria; [16]) | herbicidal effect rating, CYPSE [2, 13] | herbicidal effect rating, CYPSE [2, 14] | herbicidal effect rating, CYPSE [2, 15] | herbicidal effect rating, CYPSE [2, 16] | herbicidal effect rating, SAGPY (Sagittaria pygmaea, L.; [13]) | herbicidal effect rating, SAGPY (Sagittaria pygmaea, L.; [14]) | herbicidal effect rating ORYSAT [4, 9]
5.0: herbicidal effect rating, ECHORC [1, 15]
2.0: herbicidal effect rating, SAGPY (Sagittaria pygmaea, L.; [15])
7.0: herbicidal effect rating, ECHORC [1, 16] | herbicidal effect rating, MOOVA [3, 15]
4.0: herbicidal effect rating, ECHORC [1, 14] | herbicidal effect rating, MOOVA [3, 14] | herbicidal effect rating ORYSAT [4, 11]
9.0: herbicidal effect rating, MOOVA [3, 16]

COc1ccccc1C=C(C#N)c1nsc2ccc(-n3c(=O)cc(C(F)(F)F)n(C)c3=O)cc12 [Example 599, 1,2-Benzisothiazole-3-acetonitrile, 5-[3,6-dihydro-3-methyl-2,6-dioxo-4-(trifluoromethyl)-1(2H)-pyrimidinyl]-alpha-(o-methoxybenzylidene)-]
4.0: herbicidal effect rating, ECHORC [1, 16]
6.0: herbicidal effect rating, MOOVA [3, 13]
0.0: herbicidal effect rating, ECHORC [1, 13] | herbicidal effect rating, ECHORC [1, 14] | herbicidal effect rating, ECHORC [1, 15] | herbicidal effect rating, CYPIR (Cyperus iria; [13]) | herbicidal effect rating, CYPIR (Cyperus iria; [14]) | herbicidal effect rating, CYPSE [2, 14] | herbicidal effect rating, CYPSE [2, 16] | herbicidal effect rating, SAGPY (Sagittaria pygmaea, L.; [13]) | herbicidal effect rating, SAGPY (Sagittaria pygmaea, L.; [14]) | herbicidal effect rating, SAGPY (Sagittaria pygmaea, L.; [15]) | herbicidal effect rating, SAGPY (Sagittaria pygmaea, L.; [16])
3.0: herbicidal effect rating, CYPIR (Cyperus iria; [16]) | herbicidal effect rating ORYSAT [4, 10] | herbicidal effect rating ORYSAT [4, 11]
7.0: herbicidal effect rating, MOOVA [3, 14] | herbicidal effect rating, MOOVA [3, 16]
2.0: herbicidal effect rating ORYSAT [4, 9]
5.0: herbicidal effect rating ORYSAT [4, 12]

CCCCOCc1nsc2ccc(-n3c(=O)cc(C(F)(F)F)n(C)c3=O)cc12 [Example 204, 3-[3-(Butoxymethyl)-1,2-benzisothiazol-5-yl]-1-methyl-6-(trifluoromethyl)-2,4(1H,3H)-pyrimidinedione]
3.0: herbicidal effect rating, ORYSAT (rice tolerance) ([4]; 0.0313 kg/ha, rated three to four weeks after treatment)
2.0: herbicidal effect rating, ECHORC [1, 18] | herbicidal effect rating, CYPSE [2, 19] | herbicidal effect rating, MOOVA [3, 18]
9.0: herbicidal effect rating, ECHORC [1, 20] | herbicidal effect rating, CYPIR (Cyperus iria; [17]) | herbicidal effect rating, CYPIR (Cyperus iria; [18]) | herbicidal effect rating, CYPIR (Cyperus iria; [19]) | herbicidal effect rating, CYPIR (Cyperus iria; [20])
7.0: herbicidal effect rating, CYPSE [2, 20] | herbicidal effect rating, MOOVA [3, 20] | herbicidal effect rating, ORYSAT (rice tolerance) ([4]; 0.1250 kg/ha, rated three to four weeks after treatment) | herbicidal effect rating, ORYSAT (rice tolerance) ([4]; 0.2500 kg/ha, rated three to four weeks after treatment)
4.0: herbicidal effect rating, ECHORC [1, 19] | herbicidal effect rating, MOOVA [3, 19] | herbicidal effect rating, ORYSAT (rice tolerance) ([4]; 0.0625 kg/ha, rated three to four weeks after treatment)
0.0: herbicidal effect rating, ECHORC [1, 17] | herbicidal effect rating, CYPSE [2, 17] | herbicidal effect rating, CYPSE [2, 18] | herbicidal effect rating, MOOVA [3, 17] | herbicidal effect rating, SAGPY (Sagittaria pygmaea, L.; [17]) | herbicidal effect rating, SAGPY (Sagittaria pygmaea, L.; [18]) | herbicidal effect rating, SAGPY (Sagittaria pygmaea, L.; [19]) | herbicidal effect rating, SAGPY (Sagittaria pygmaea, L.; [20])

CSCCCCOC(=O)COc1ccc(C)cc1-c1nsc2ccc(-n3c(=O)cc(C(F)(F)F)n(C)c3=O)cc12 [Example 518, Acetic acid, {{2-{5-[3,6-dihydro-3-methyl-2,6-dioxo-4-(trifluoromethyl)-1(2H)-pyrimidinyl]-1,2-benzisothiazol-3-yl}-p-tolyl}oxy}-, 4-(methylthio)butyl ester]
1.0: herbicidal effect rating ORYSAT ([4]; Rate 0.0320 kg/ha, rated 3-4 weeks after treatment)
7.0: herbicidal effect rating, ECHORC [1, 24] | herbicidal effect rating, MOOVA [3, 22]
9.0: herbicidal effect rating, MOOVA [3, 23] | herbicidal effect rating, MOOVA [3, 24]
2.0: herbicidal effect rating, ECHORC [1, 22] | herbicidal effect rating, CYPIR (Cyperus iria; [22]) | herbicidal effect rating, CYPIR (Cyperus iria; [23]) | herbicidal effect rating ORYSAT ([4]; Rate 0.0620 kg/ha, rated 3-4 weeks after treatment)
0.0: herbicidal effect rating, ECHORC [1, 21] | herbicidal effect rating, CYPIR (Cyperus iria; [21]) | herbicidal effect rating, CYPSE [2, 21] | herbicidal effect rating, CYPSE [2, 22] | herbicidal effect rating, CYPSE [2, 23] | herbicidal effect rating, CYPSE [2, 24] | herbicidal effect rating, SAGPY (Sagittaria pygmaea, L.; [21]) | herbicidal effect rating, SAGPY (Sagittaria pygmaea, L.; [22]) | herbicidal effect rating, SAGPY (Sagittaria pygmaea, L.; [23]) | herbicidal effect rating, SAGPY (Sagittaria pygmaea, L.; [24])
4.0: herbicidal effect rating, ECHORC [1, 23] | herbicidal effect rating, CYPIR (Cyperus iria; [24]) | herbicidal effect rating, MOOVA [3, 21] | herbicidal effect rating ORYSAT ([4]; Rate 0.1250 kg/ha, rated 3-4 weeks after treatment) | herbicidal effect rating ORYSAT ([4]; Rate 0.2500 kg/ha, rated 3-4 weeks after treatment)
